# Test results published in patent US11141403B2, “Benzimidazoles and indoles as taro inhibitors” (MERCK SHARP & DOHME CORP., priority 2015, dated 2021).
# Test system: MRSA COL (MB5393)
# Experiment: TarO Inhibitor/β-Lactam Synergy Assay
# Assay type: cell-based, Staphylococcus aureus
# Details: 20 hours; for IC95: Staphylococcus aureus, TarO inhibitor alone, OD600, 95% growth inhibition, read-out: MITC95 TarO inhibitor alone, Bacteria: SA_MB5393; for MITC95 TarO inhibitor + 4 μg/mL IPM; Bacteria: SA_MB5393: in combination with 4 μg/mL imipenem; for MITC95 TarO inhibitor + 4 μg/mL IPM; Bacteria: SA_MB5393 / MITC95 TarO inhibitor + 8 μg/mL DCX; Bacteria: SA_MB5393: OD600; for MITC95 TarO inhibitor + 8 μg/mL DCX; Bacteria: SA_MB5393: in combination with 8 μg/mL dicloxacillin
# Experimental: The TarO inhibitor/β-lactam synergy assay was performed to measure the re-sensitization of methicillin-resistant Staphylococci bacteria (MB5393: MRSA COL) to β-lactam antibiotics by TarO inhibitors. MRSA COL is a hospital-acquired penicillinase-negative clinically isolated strain commonly used in Staphylococcus aureus studies and is fully resistant to the antimicrobial bioactivity of β-lactam antibiotics, including but not limited to imipenem and dicloxacillin. […] MRSA COL is fully refractory to β-lactam antibiotic effect at the current clinical breakpoint concentrations and as such MRSA COL is fully viable at these concentrations.
# The β-lactam antibiotic concentration was fixed at the clinical breakpoint (imipenem 4 μg/ml or dicloxacillin 8 μg/ml) and the TarO inhibitors were titrated by 2 fold starting from the highest concentration of 200 μM with final DMSO concentration of 2% in the assay. 5×10^5 colony forming unit of MRSA COL in cation-adjusted Mueller Hinton broth (CAMHB) was then mixed and the assay plate was incubated for 20 hours at 37° C. without shaking. After 20 hours, the optical density at 600 nm (OD600) was read for all wells to determine relative growth of MRSA COL.
Structure (SMILES),IC95 [µM],MITC95 TarO inhibitor + 4 μg/mL IPM; Bacteria: SA_MB5393 [µM],MITC95 TarO inhibitor + 8 μg/mL DCX; Bacteria: SA_MB5393 [µM]
"CCN(C(=O)CCn1c2cc(C#N)ccc2nc1[C@H]1CC[C@H](CC)CC1)C1CCCCC1 [Example 3, 3-[6-cyano-2-(trans-4-ethylcyclohexyl)-1H-benzimidazol-1-yl]-N-cyclohexyl-N-ethylpropanamide]",> 200,4.17,20.83
"CCCOC(=O)N1CCCC(c2nc3ccccc3n2CCC(=O)N(CC)C2CCCCC2)C1 (centres unmarked) [Example 51, Propyl 3-(1-{3-[cyclohexyl(ethyl)amino]-3-oxopropyl}-1H-benzimidazol-2-yl)piperidine-1-carboxylate]",100,0.39,3.13
"CCN(C(=O)CCn1c2c(F)cccc2nc1[C@H]1CC[C@H](CC)CC1)C1CCCCC1 [Example 11, N-cyclohexyl-N-ethyl-3-[2-(trans-4-ethylcyclohexyl)-7-fluoro-1H-benzimidazol-1-yl]propanamide]",> 200,0.40,1.04
"CCC1CCN(Cc2nc3cc(C)ccc3n2CCC(=O)N(CC)C2CCCCC2)CC1 [Example 61, N-cyclohexyl-N-ethyl-3-{2-[(4-ethylpiperidin-1-yl)methyl]-5-methyl-1H-benzimidazol-1-yl}propanamide]",50,6.25,25
"CC1CCN(C(=O)CCn2c(C3CCCCC3)nc3ccccc32)CC1 [Example 63, 3-(2-cyclohexyl-1H-benzo[d]imidazol-1-yl)-1-(4-methylpiperidin-1-yl)propan-1-one]",> 200,18.75,
"CCN(C(=O)CCn1c2cccc(C[C@H]3CCOC3)c2nc1[C@H]1CC[C@H](CC)CC1)C1CCCCC1 [Example 29, N-cyclohexyl-N-ethyl-3-{2-(trans-4-ethylcyclohexyl)-4-[(3S)-tetrahydrofuran-3-ylmethyl]-1H-benzimidazol-1-yl}propanamide]",> 200,1.56,6.25
"CCN(C(=O)CCn1c(-c2ccc(OCC(F)(F)F)cc2)nc2ccccc21)C1CCCCC1 [Example 34, N-cyclohexyl-N-ethyl-3-{2-[4-(2,2,2-trifluoroethoxy)phenyl]-1H-benzimidazol-1-yl}propanamide]",> 200,0.25,0.54
"CCN(C(=O)CCn1c(C2CCC(C)N(c3nccc(OC)n3)C2)nc2ccccc21)C1CCCCC1 (centres unmarked) [Example 50, N-cyclohexyl-N-ethyl-3-{2-[1-(4-methoxypyrimidin-2-yl)-6-methylpiperidin-3-yl]-1H-benzimidazol-1-yl}propanamide]",100,0.20,1.56
"CCN(C(=O)CCn1c(C2CCCN(c3nccc(C)n3)C2)nc2ccccc21)C1CCCCC1 (centres unmarked) [Example 52, N-cyclohexyl-N-ethyl-3-{2-[1-(4-methylpyrimidin-2-yl)piperidin-3-yl]-1H-benzimidazol-1-yl}propanamide]",100,1.56,6.25
"CCN(C(=O)CCn1c2cc(-c3ccccc3)ccc2nc1[C@H]1CC[C@H](CC)CC1)C1CCCCC1 [Example 24, N-cyclohexyl-N-ethyl-3-(2-(trans-4-ethylcyclohexyl)-6-phenyl-1H-benzo[d]imidazol-1-yl)propanamide]",> 200,0.04,0.46
"CCN(C(=O)CCn1c(C2CCN(C(=O)OC(C)(C)C)C2)nc2cc(F)ccc21)C1CCCCC1 (centres unmarked) [Example 21, tert-butyl 3-(1-{3-[cyclohexyl(ethyl)amino]-3-oxopropyl}-5-fluoro-1H-benzimidazol-2-yl)pyrrolidine-1-carboxylate]",> 200,0.78,13.54
"CC(C)(C)OC(=O)NCC1CCC(c2nc3ccccc3n2CCC(=O)NC2C[C@H]3CC[C@]2(C)C3(C)C)CC1 (stereo partly drawn) [Example 40, tert-butyl ({4-[1-(3-oxo-3-{[(1R,4R)-1,7,7-trimethylbicyclo[2.2.1]hept-2-yl]amino}propyl)-1H-benzimidazol-2-yl]cyclohexyl}methyl) carbamate]",> 200,2.34,9.38
"CCN(C(=O)CCn1c(N2CCC(C)CC2)nc2ccccc21)C1CCCCC1 [Example 57, N-cyclohexyl-N-ethyl-3-[2-(4-methylpiperidin-1-yl)-1H-benzimidazol-1-yl]propanamide]",> 200,1.30,26
"CCN(C(=O)CCn1c(-c2ccc(-n3ccnn3)cc2)nc2ccccc21)C1CCCCC1 [Example 42, N-cyclohexyl-N-ethyl-3-{2-[4-(1H-1,2,3-triazol-1-yl)phenyl]-1H-benzimidazol-1-yl}propanamide]",> 200,18.75,25.00
"CCN(C(=O)CCn1c2ccc(C(F)(F)F)cc2nc1[C@H]1CC[C@H](CC)CC1)C1CCCCC1 [Example 7, N-cyclohexyl-N-ethyl-3-[2-(trans-4-ethylcyclohexyl)-5-(trifluoromethyl)-1H-benzimidazol-1-yl]propanamide]",> 200,0.20,0.20
"CCN(C(=O)CCn1c2ncccc2nc1[C@H]1CC[C@H](CC)CC1)C1CCCCC1 [Example 19, N-cyclohexyl-N-ethyl-3-[2-(trans-4-ethylcyclohexyl)-3H-imidazo[4,5-b]pyridin-3-yl]propanamide]",> 200,1.95,28.13
"CCN(C(=O)CCn1c2cc(CN)ccc2nc1[C@H]1CC[C@H](CC)CC1)C1CCCCC1 [Example 27, 3-[6-(aminomethyl)-2-(trans-4-ethylcyclohexyl)-1H-benzimidazol-1-yl]-N-cyclohexyl-N-ethylpropanamide]",> 200,37.50,50
"CCN(C(=O)CCn1c2cc(CO)ccc2nc1[C@H]1CC[C@H](CC)CC1)C1CCCCC1 [Example 14, N-cyclohexyl-N-ethyl-3-[2-(trans-4-ethylcyclohexyl)-6-(hydroxymethyl)-1H-benzimidazol-1-yl]propanamide]",> 200,0.52,3.13
"CCN(C(=O)CCn1c2ccncc2nc1[C@H]1CC[C@H](CC)CC1)C1CCCCC1 [Example 17, N-cyclohexyl-N-ethyl-3-[2-(trans-4-ethylcyclohexyl)-1H-imidazo[4,5-c]pyridin-1-yl]propanamide]",> 200,0.98,6.25
"CCN(C(=O)CCn1c2cc(CN3CCN(CC(F)(F)F)CC3)ccc2nc1[C@H]1CC[C@H](CC)CC1)C1CCCCC1 [Example 30, N-cyclohexyl-N-ethyl-3-[2-(trans-4-ethylcyclohexyl)-6-{[4-(2,2,2-trifluoroethyl)piperazin-1-yl]methyl}-1H-benzimidazol-1-yl]propanamide]",> 200,18.75,25
"CCN(C(=O)CCn1c(C2CCCCC2)nc2ccccc21)C1CCCCC1 [Example 35, N-cyclohexyl-3-(2-cyclohexyl-1H-benzimidazol-1-yl)-N-ethylpropanamide]",> 200,1.95,9.38
"CN(C(=O)CCn1c(C2CCCCC2)nc2ccccc21)C1CCCCC1 [Example 39, N-cyclohexyl-3-(2-cyclohexyl-1H-benzimidazol-1-yl)-N-methylpropanamide]",> 200,4.69,12.50
